From article PMC7073886, “Structure–Bioactivity Relationships of Lapatinib Derived Analogs against Schistosoma mansoni” (ACS Medicinal Chemistry Letters, 2020)

Tests used:
adult S. mansoni = test: Phenotypic screen of adult S. mansoni worms, severity scores and descriptors; format: cell-based, Schistosoma mansoni; conditions: for Descriptors (10 µM) 1 h / Severity Scores (10 μM) 1 h / Descriptors (10 µM) 5 h / Severity Scores (10 μM) 5 h / Descriptors (10 µM) 24 h / Severity Scores (10 μM) 24 h / Descriptors (10 µM) 48 h / Severity Scores (10 μM) 48 h: adult S. mansoni; for Descriptors (10 µM) 1 h / Descriptors (10 µM) 5 h / Descriptors (10 µM) 24 h / Descriptors (10 µM) 48 h: phenotypic descriptors; for Severity Scores (10 μM) 1 h / Severity Scores (10 μM) 5 h / Severity Scores (10 μM) 24 h / Severity Scores (10 μM) 48 h: scale 0 (no activity) to 4 (maximal activity); for bioactivity against adult S. mansoni: adult schistosomes; for Severity Scores (10 μM) 1 h / Severity Scores (10 μM) 5 h / Severity Scores (10 μM) 24 h / Severity Scores (10 μM) 48 h / bioactivity against adult S. mansoni: 10 μM
Description: Because the schistosome parasite can present multiple and dynamic phenotypic responses to chemical insult,[16] we employ a constrained nomenclature of descriptors to describe the changes in the parasite as a function of time and concentration (e.g., motility, density, and shape; and in the case of the adult parasite, an inability to adhere to the bottom of the assay dish). These descriptors are converted into severity scores on a scale of 0 (green)–4 (severest/red) that allow for partially quantitative comparisons of compound effects.[1]−[19] […] The descriptors themselves and their respective scores are detailed in the Supporting Information, Table S1. Severity score data are presented in the results (with the corresponding descriptors detailed in the Supporting Information, Tables S2–S8), and eight new analogs developed and synthesized in support of this effort are described. Finally, absorption, distribution, metabolism and excretion (ADME) data of all compounds presented in this work are reported in the Supporting Information, Table S15.
Table S1. Descriptors and associated severity scores used for S. mansoni adults.
R (rounded or shape altered 1
On sides (adults unable to 1
Shrunk (adults are shorter 1
surface (tegument) of adults)
dfailed to create analytical method
Maintenance of the Schistosoma mansoni life cycle (NMRI isolate), the preparation of adult worms (≥ 42-
days-old), and their co-incubation with test compounds were as described.7-9 Phenotypic responses were
visually recorded using a constrained nomenclature and converted to severity scores on a scale from zero
(no activity) to 4 (maximal activity).8, 9 Use of hamsters for maintaining the S. mansoni life-cycle was
approved by the Institutional Animal Care and Use Committee of the University of California San Diego.
The human myelomonocytic cell line THP -1 was grown at 37 °C and 5% CO2 in RPMI-1640 supplemented
with 10% iFBS, 2 mM glutamate, 100 U/mL penicillin and […] streptomycin.
Drug toxicity to HepG2 cells .10 HepG2 cells line were obtained from the American Type Culture
Collection and cultured in Minimal Essential Medium (MEM) supplemented with 0.19% sodium
bicarbonate, 10% Fetal Bovine Serum, 2 mM L -glutamine, 0.1 mM MEM non-essential amino, 0.009
mg/mL insulin, 1.76 mg/mL bovine serum albumin. The viability of the cells was measured using the MTT
(thiazolyl blue reduction) method. Briefly, ninety -six-well plates were seeded with 2.5 × 10^4 cells/well in
170 ml of culture medium and incubated overnight in 5% CO 2 at 37 °C. Cells were exposed to different
experimental compounds in DMSO. After 48 hours incubation, the viability of the cells was assessed using
MTT (thiazolyl blue reduction) as a dose response assay (11 two -fold serial dilutions) to obtain a calculated
IC50 determination. 4-Azaindolo[2,1-b]quinazoline-6,12-dione is used as a toxicity positive control and
each assay plate includes the following 3 additional controls: a) background control: no cells and no drug
was added, b) target control: cells added but no drugs, and c) DMSO control: same as the target control
except the culture media contains 0.6% DMSO. Absorbance was determined in all wells using a Perkin
Elmer, Ensight plate reader. The fifty percent inhibitory concentrations (IC50’s) were determined using
GraphPad Prism nonlinear regr ession (sigmoidal dose -response, variable slope) equation .
ADME Experiment Protocols
Aqueous pH 7.4 Solubility. Compounds were dried down from 10 mM DMSO solutions using centrifugal
evaporation technique. Phosphate buffer (0.1 M pH 7.4) was added and StirStix were inserted in the glass
vials, with shaking then performed at a constant temperature of 25 °C for 20 -24 h. This step was followed
by double centrifugation with a tip wash in between, to ensure that no residues of the dried compounds
interfere. The solutions were diluted before analysis and quantification using LC/MS/MS was performed.

[1] = Log D7.4 shake-flask octanol-water; format: physicochemical; conditions: pH 7.4
Experimental: Log D7.4. Shake-flask octanol-water distribution coefficient was determined at pH 7.4 (Log D7.4). The aqueous solution used is 10 mM sodium phosphate pH 7.4 buffer. The method has been validated for Log D7.4 ranging from -2 to 5.0.
Human Plasma Protein Binding (PPB). PPB was determined using equilibrium dialysis (RED device) to separate free from bound compound. The amount of compound in plasma (10 µM initial concentration) and in dialysis buffer (pH 7.4 phosphate buffer) was measured by LC-MS/MS after equilibration at 37 °C in a dialysis chamber. The fraction unbound (fu) is reported.
Human Liver Microsomal Clint. In vitro intrinsic clearance was determined from human liver microsomes using a standard approach.11 Following incubation and preparation, the samples were analyzed using […]
Rat Hepatocyte Clint. In vitro intrinsic clearance was determined from rat hepatocytes using a standard approach.11 Following incubation and preparation, the samples were analyzed using LC/MS/MS. Refined […]
Calculated LogP and LogD values. Both LogP and LogD predictions are based on a modified version of the method12 where the predicted partition coefficients are composed of the molecules’ atomic increments.
General Chemistry. All starting materials were commercially obtained and were used without further purification, unless specified. Reaction solvents were purified by passage through alumina columns on a purification system manufactured by Innovative Technology (Newburyport, MA). NMR spectra were obtained on Varian NMR systems, operating at 400 or 500 MHz for 1 H acquisitions. LCMS analysis was performed using a Waters AllianceHT e2795 reverse phase HPLC (Waters SunFire C18 4.6 × 50 mm, 3.5 μm column), with a Waters 2996 photodiode array detector scanning from 210 nm to 600 nm, and Waters Micromass ZQ detector (electrospray ionization). Where required, final compounds were purified by preparative reverse phase HPLC (columns Waters Symmetry RP8 30 × 50 mm, 5 μm column, or OBD RP18 30 × 50 mm, 5 μm), with a single wavelength UV−visible detector and Waters Micromass ZQ (electrospray ionization).

[2] = Human liver microsomal Clint; format: in vitro ADME; conditions: human liver microsomes, intrinsic clearance; read-out: HLM Clint
Rat hepatocyte Clint = format: in vitro ADME; conditions: rat hepatocytes, intrinsic clearance; read-out: RH CLint

SMILES	Descriptors (10 µM) 1 h (adult S. mansoni)	Severity Scores (10 μM) 1 h (adult S. mansoni)	Descriptors (10 µM) 5 h (adult S. mansoni)	Severity Scores (10 μM) 5 h (adult S. mansoni)	Descriptors (10 µM) 24 h (adult S. mansoni)	Severity Scores (10 μM) 24 h (adult S. mansoni)	Descriptors (10 µM) 48 h (adult S. mansoni)	Severity Scores (10 μM) 48 h (adult S. mansoni)	bioactivity against adult S. mansoni (adult S. mansoni)	logD [1]	microsomal CLint [2] [µL/min/mg]	hepatocyte CLint (Rat hepatocyte Clint) [µL/min/1e6 cells]
CC(C)(C)OC(=O)N1CCN(c2ncc(-c3ccc4c(Nc5cnccn5)ccnc4c3)cn2)CC1 [3a]	none	0	none	0	none	0	none	0	no bioactivity	4.7	> 300	32
O=C(O)C1CCCN1c1ncc(-c2ccc3c(Nc4cnccn4)ccnc3c2)cn1 (centres unmarked) [3c]	none	0	none	0	none	0	none	0	no bioactivity	0.1	< 3	< 1
CN1CCN(c2ncc(-c3ccc4c(NC5CCC(N(C)C)CC5)ccnc4c3)cn2)CC1 (centres unmarked) [S1a]	none	0	none	0	none	0			no significant bioactivity	0.3		4.2
CN1CCN(c2ncc(-c3ccc4c(NCCN5CCCC5)ccnc4c3)cn2)CC1 [S1b]	none	0	none	0	none	0		1	no significant bioactivity	1.2		1
CN1CCN(c2ncc(-c3ccc4c(N[C@@H]5CCCC[C@H]5O)ccnc4c3)cn2)CC1 [S1c]	none	0	none	0	none	0			no significant bioactivity	1.7		8.1
CN1CCN(c2ncc(-c3ccc4c(NCC5CCOCC5)ccnc4c3)cn2)CC1 [S1e]	none	0	none	0	none	0		1	no significant bioactivity	2		23
